Values quoted from earlier work as cited in patent US12268783B2, “Platform drug delivery system utilizing crystal engineering and theanine dissolution” (THEAPRIN PHARMACEUTICALS, INC., priority 2015, dated 2025).

Legend:
[1] = test system: human red blood cells (RBC) exposed to venom or purified venom porin; details: RBC exposed to total venom or purified porin
[2] = test system: human dopaminergic cell line SH-SY5Y; details: SH-SY5Y cultures subjected to rotenone and dieldrin, treated or pre-treated with L-Theanine
[3] = in humans (so in the source)
[4] = test system: APP (Swedish Mutation) transgenic SH-SY5Y cell; details: via inhibition of the NMDA receptor pathway
cancer cells = details: without an increase in DOX-induced side effects
rat brain regions = details: rat cerebral cortex, hippocampus and cerebellum

**Q.** Which “potassium efflux from RBC” value [1] does the source give for zinc gluconate here?
**A.** inhibited potassium efflux

**Q.** For `CCNC(=O)CC[C@H](N)C(=O)O` [Theanine, 5-N-ethyl-glutamine], which “DNA fragmentation and apoptotic cell death” value [2] is on record?
**A.** decreased DNA fragmentation and apoptotic cell death

**Q.** What about the LD50 toxicity [3] of the same compound?
**A.** > 5000 mg/kg

**Q.** And the “protection against glutamate-induced excitotoxicity” value [4]?
**A.** protects

**Q.** And the “effect on antitumor activity of doxorubicin (DOX)” value (cancer cells)?
**A.** enhances the antitumor activity of doxorubicin

**Q.** What about the “protective effect against aluminum-induced neurotoxicity” value (rat brain regions) of the same compound?
**A.** counteracting the damage inflicted by aluminum
